Laboratory results reported in US11013745B2, “Triazolopyrimidine, triazolopyridine compounds, and the composition thereof for treating PRC2-mediated diseases” (SHANGHAI INSTITUTE OF MATERIA MEDICA, CHINESE ACADEMY OF …, priority 2017, dated 2021).
Read-outs that look alike come from different tables or passages of the source.

Tests used:
PRC2 enzyme = PRC2 enzyme (Homo sapiens (Human), UniProt O75530); assay: PRC2 enzyme activity, TR-FRET method; assay type: biochemical
Summary of the method: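 Enzyme preincubated with compound 30 min at room temperature; reaction started with biotin-labeled histone H3 peptide and SAM, run 4 h at room temperature.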

Karpas-422 cells = assay: Growth inhibition of Karpas-422 cells in a long term (11 days), CellTiter-Glo; assay type: cell-based, Human; details: Homo sapiens, read-out: Karpas-422 (11 days) IC50
[1] = Oral pharmacokinetics in rats; assay type: in vivo; details: male, SD, plasma, rat, intragastric, 3 mg/kg; for AUC(0-inf): extrapolated to infinity, read-out: AUCINF_obs; for MRT inf: read-out: Average residence time MRTINF_obs; for half-life: read-out: Half life T1/2 (converted); for Cmax: read-out: Peak concentration Cmax
Experimental: 1. Healthy male SD rats were used as test animals, EED226, […]-07 (3 mg/kg) were administered intragastrically, and the drug concentrations in rat plasma were determined by LC/MS/MS method at different time points after drug administration. The pharmacokinetic behavior of the compounds of the present invention in rats was studied, and the pharmacokinetic properties were evaluated. 2. The test animals were healthy adult male SD rats, with 3 rats in each group, purchased from Shanghai Xipuer-Bikai Laboratory Animal Limited Company. 3. Drug preparation: Compounds EED226, […] were dissolved in DMSO/0.5% HPMC (5/95, v/v) for preparation. The compound SL-ZYE-07 was dissolved in 0.5% HPMC (containing 0.5% Tween 80), vortexed, and sonicated to disperse the solid matter uniformly to obtain a pale white suspension. 4, Operation: EED226, […]-07 were administered to rats by intragastric administration (3 mg/kg), 45 μL of blood was taken through the femoral vein at 0.25, 0.5, 1, 2, 4, 8, 24 hour after administration, and centrifuged in a heparinized centrifuge tube for 5 min, and the plasma samples were separated for analysis. The contents of test compounds in rat plasma after intragastric administration of different compounds were determined by Liquid chromatography-mass spectrometry (LC-MS/MS).

Pfeiffer cells [2] = assay: Pfeiffer cell growth inhibition in a long term (11 days), CellTiter-Glo; assay type: cell-based, Human; details: Homo sapiens, 264 h, read-out: Experiment on Pfeiffer cell growth inhibition in a long term (11 days IC50)
Summary of the method: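 Exponentially growing cells seeded at 1*10E5 cells/mL and treated the same day with a concentration range. Media and compound were refreshed at days 4 and 7. Viability was read by CellTiter-Glo after 11 days and GI50 values were derived.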

Pfeiffer cells [3] = assay: Growth inhibition of Pfeiffer cells in a long term (14 days), CellTiter-Glo; assay type: cell-based, Human; details: Homo sapiens, 336 h, read-out: Pfeiffer (14 days) IC50
Experimental: In a CO2 cell incubator (37° C., 5% CO2), Human diffuse large B-cell lymphoma (DLBCL) cell line, pfeiffer (obtained from ATCC, CRL-2632) were incubated with RPMI 1640 medium (Gibco, purchased from Life Technologies, 22400-089) containing 10% fetal bovine serum (Gibco, purchased from Life Technologies, 10099-141) and 1% antibiotics (penicillin and streptomycin, purchased from Life Technologies, 10378016). […] After seeding the cells, they were placed in a CO2 incubator and allowed to stand for 1 hour. In a 24-well plate containing cells, 2 μL of three-fold gradient of the compounds at 9 different concentrations or DMSO were added to each well, such that the final concentration of the compounds was 0.003-20 μM or 0.3-2000 nM, and the final concentration of DMSO was 0.2%. At day 4, day 7, and day 11 of compound treatment, the fresh medium and compounds were changed, and the cell density of the DMSO control well was diluted to 2*10E5 cells/mL. The cell dilution ratio for other compound wells was the same as that of the DMSO control well. Cell viability was determined by using CellTiter-Glo reagent (purchased from Promega Inc., G7572): cells treated with the compounds for 14 days were transferred to a white 384-well plate (OptiPlate-384, purchased from PerkinElmer, 6007299) at 40 μL/well, an equal volume of CellTiter-Glo reagent was further added. After incubating at room temperature for 10 min, the cold luminescence signal was detected with a multifunctional microplate reader EnVision (PerkinElmer) at a wavelength of 400 to 700 nm. Data were analyzed using GraphPad Prism 5.0 software, and IC50 values were obtained.

SU-DHL-4 cells = assay: Growth inhibition of SU-DHL-4 cells in a long term (11 days), CellTiter-Glo; assay type: cell-based, Human; details: Homo sapiens, read-out: SU-DHL-4 (11 days) IC50
[4] = Liver microsomal stability (human); assay type: in vitro ADME
Summary of the method: (§1)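 Human, mouse and rat liver microsomes were incubated with NADPH and MgCl2 in 0.1 M Tris pH 7.4, with compound at a 0.2 μM working solution. Remaining compound was quantified by LC/MS over the incubation time. The slope of log remaining versus time gave Clint, which was scaled to predicted Cl, Clhep and % MF.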

[5] = Liver microsomal stability (mouse); assay type: in vitro ADME
[6] = Liver microsomal stability (rat); assay type: in vitro ADME
Summary of the method: as §1

Chain of PRC2 enzyme (O75530 whole entry): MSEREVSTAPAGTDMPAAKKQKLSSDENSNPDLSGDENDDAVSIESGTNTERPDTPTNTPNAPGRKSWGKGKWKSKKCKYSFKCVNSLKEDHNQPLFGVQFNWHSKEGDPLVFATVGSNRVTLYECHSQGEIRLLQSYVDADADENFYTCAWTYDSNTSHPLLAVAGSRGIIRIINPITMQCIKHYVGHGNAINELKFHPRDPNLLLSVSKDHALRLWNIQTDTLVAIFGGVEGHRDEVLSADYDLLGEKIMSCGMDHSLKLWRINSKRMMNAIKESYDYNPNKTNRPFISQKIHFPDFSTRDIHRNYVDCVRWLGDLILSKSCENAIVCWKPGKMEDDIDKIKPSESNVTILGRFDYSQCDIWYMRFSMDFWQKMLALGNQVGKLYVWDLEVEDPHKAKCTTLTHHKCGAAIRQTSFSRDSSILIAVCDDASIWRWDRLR
Chain of PRC2 enzyme (Q15910 whole entry partner): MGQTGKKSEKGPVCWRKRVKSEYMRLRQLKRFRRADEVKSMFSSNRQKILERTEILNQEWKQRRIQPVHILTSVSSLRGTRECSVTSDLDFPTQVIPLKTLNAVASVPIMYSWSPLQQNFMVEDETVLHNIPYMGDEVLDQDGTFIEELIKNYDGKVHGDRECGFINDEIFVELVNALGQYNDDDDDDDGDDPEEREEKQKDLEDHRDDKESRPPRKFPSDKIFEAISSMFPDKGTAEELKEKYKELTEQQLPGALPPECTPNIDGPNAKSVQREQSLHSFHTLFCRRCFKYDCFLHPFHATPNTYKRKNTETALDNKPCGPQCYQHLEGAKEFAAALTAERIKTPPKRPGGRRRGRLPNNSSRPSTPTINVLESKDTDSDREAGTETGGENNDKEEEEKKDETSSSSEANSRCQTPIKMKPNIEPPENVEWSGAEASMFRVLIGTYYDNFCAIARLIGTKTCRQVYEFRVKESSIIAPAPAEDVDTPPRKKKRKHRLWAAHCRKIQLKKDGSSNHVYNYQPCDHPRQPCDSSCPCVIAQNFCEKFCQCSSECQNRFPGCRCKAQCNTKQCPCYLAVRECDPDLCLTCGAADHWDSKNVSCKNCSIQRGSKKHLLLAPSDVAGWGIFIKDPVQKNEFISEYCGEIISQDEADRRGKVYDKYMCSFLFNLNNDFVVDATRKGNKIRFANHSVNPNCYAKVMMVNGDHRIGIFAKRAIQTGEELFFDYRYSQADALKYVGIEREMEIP
Chain of PRC2 enzyme (Q15022 whole entry partner): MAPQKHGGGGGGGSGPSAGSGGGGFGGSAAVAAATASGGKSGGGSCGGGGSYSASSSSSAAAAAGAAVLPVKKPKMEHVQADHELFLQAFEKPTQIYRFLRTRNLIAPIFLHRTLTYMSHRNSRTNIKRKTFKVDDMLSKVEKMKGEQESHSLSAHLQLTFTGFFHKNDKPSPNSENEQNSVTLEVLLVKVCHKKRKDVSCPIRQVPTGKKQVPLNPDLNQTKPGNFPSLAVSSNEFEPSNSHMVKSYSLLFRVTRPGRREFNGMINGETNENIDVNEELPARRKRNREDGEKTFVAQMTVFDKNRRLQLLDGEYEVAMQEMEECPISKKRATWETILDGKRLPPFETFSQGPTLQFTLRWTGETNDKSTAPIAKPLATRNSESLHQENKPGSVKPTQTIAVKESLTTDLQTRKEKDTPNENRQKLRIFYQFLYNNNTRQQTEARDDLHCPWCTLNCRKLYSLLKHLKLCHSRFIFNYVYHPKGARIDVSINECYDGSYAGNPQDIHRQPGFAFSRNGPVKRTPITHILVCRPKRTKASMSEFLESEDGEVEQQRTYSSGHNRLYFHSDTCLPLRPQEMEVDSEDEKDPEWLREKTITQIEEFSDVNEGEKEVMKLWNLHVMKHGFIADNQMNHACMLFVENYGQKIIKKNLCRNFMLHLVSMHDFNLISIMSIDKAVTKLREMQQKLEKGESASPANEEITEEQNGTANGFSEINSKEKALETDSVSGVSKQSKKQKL

## CS(=O)(=O)c1ccc(-c2cnc(NCc3ccco3)n3cnnc23)cc1 [EED226, reference compound]
PRC2 enzyme
  IC50: 104 nM
Karpas-422 cells; KARPAS-422, 264 h
  IC50: 167 nM
[1]
  AUC(0-t): 886 ± 336 ng·h/mL
  AUC(0-inf): 915 ± 316 ng·h/mL
  MRT inf: 2.55 ± 1.08 h
  half-life: 1.63 ± 0.411 h
  Cmax: 464 ± 429 ng/mL
Pfeiffer cells [2]
  IC50: 52 nM
Pfeiffer cells [3]
  IC50: 44 nM
SU-DHL-4 cells; SU-DHL-4, 264 h
  IC50: 95 nM

## Fc1ccc2c(c1CNc1ncc(C3=CCOCC3)c3nncn13)CCO2 [E-Y1]
[4]; human liver microsomes
  Clearance rate in vivo Clint In Vivo Extpl: 1613 mL/min
  Intrinsic clearance rate in vivo Clint In Vitro: 21.1 mL/min/gprot
  Liver clearance rate Clint Hep In Vivo Extpl: 777 mL/min
[4]; human, liver microsomes, pH 7.4, human liver microsomes, read-out: Half life T-half
  half-life: 1.66 h
[4]; human, liver microsomes, pH 7.4, human liver microsomes, read-out: Metabolic bioavailability MF %
  bioavailability: 48.2%
Karpas-422 cells; 264 h, Karpas-422, 11 days
  IC50: 19 nM
[1]
  AUC(0-t): 2200 ± 237 ng·h/mL
  AUC(0-inf): 2200 ± 239 ng·h/mL
  MRT inf: 5.46 ± 0.342 h
  half-life: 2.32 ± 0.268 h
  Cmax: 302 ± 6.4 ng/mL
[5]; mouse liver microsomes
  Clearance rate in vivo Clint In Vivo Extpl: 1.98 mL/min
  Intrinsic clearance rate in vivo Clint In Vitro: 29.4 mL/min/gprot
  Liver clearance rate Clint Hep In Vivo Extpl: 1.19 mL/min
  Metabolic bioavailability MF %: 60.2%
[5]; mouse, liver microsomes, pH 7.4, mouse liver microsomes, read-out: Half life T-half
  half-life: 1.19 h
[6]; rat liver microsomes
  Clearance rate in vivo Clint In Vivo Extpl: 15.9 mL/min
  Intrinsic clearance rate in vivo Clint In Vitro: 35.2 mL/min/gprot
  Liver clearance rate Clint Hep In Vivo Extpl: 8.85 mL/min
  Metabolic bioavailability MF %: 55.8%
[6]; rat, liver microsomes, pH 7.4, rat liver microsomes, read-out: Half life T-half
  half-life: 0.993 h
Pfeiffer cells [2]; 11 days
  IC50: 8 nM
Pfeiffer cells [3]; 14 days
  IC50: 4 nM
SU-DHL-4 cells; 264 h, SU-DHL-4, 11 days
  IC50: 4 nM
